From patent publication US9732060B2, “Aminotriazine derivative and pharmaceutical composition comprising the same” (Shionogi & Co., Ltd., priority 2013, dated 2017)
Where two headings read alike, the source gives them in different places.

Experiments:
CYP1A2 = CYP1A2 (Homo sapiens (Human), UniProt P05177); assay: CYP inhibition test, CYP1A2; assay type: in vitro ADME; settings: pooled human hepatic microsome; 7-ethoxyresorufin-O-deethylation
Method: (§1) Using commercially available pooled human hepatic microsome, and employing, as markers, 7-ethoxyresorufin-O-deethylation (CYP1A2), tolbutamide methyl-hydroxylation (CYP2C9), mephenytoin 4′-hydroxylation (CYP2C19), dextromethorphan O-demethylation (CYP2D6), and terfenedine hydroxylation as typical substrate metabolism reactions of human main five CYP enzyme forms (CYP1A2, 2C9, 2C19, 2D6, 3A4), an inhibitory degree of each metabolite production amount by a test compound was assessed.
(§2) The reaction conditions were as follows: substrate, 0.5 μmol/L ethoxyresorufin (CYP1A2), 100 μmol/L tolbutamide (CYP2C9), 50 μmol/L S-mephenitoin (CYP2C19), 5 μmol/L dextromethorphan (CYP2D6), 1 μmol/L terfenedine (CYP3A4); reaction time, 15 minutes; reaction temperature, 37° C. enzyme, pooled human hepatic microsome 0.2 mg protein/mL; test, drug concentration, 1.0, 5.0, 10, 20 μmol/L (four points).
(§3) Each five kinds of substrates, human hepatic microsome, or a test drug in 50 mmol/L Hepes buffer as a reaction solution was added to a […] at the composition as described above, NADPH, as a cofactor was added to initiate metabolism reactions as markers and, after the incubation at 37° C. for 15 minutes, a methanol/acetonitrile=1/1 (v/v) solution was added to stop the reaction. After the centrifugation at 3000 rpm for 15 minutes, resorufin (CYP1A2 metabolite) in the supernatant was quantified by a fluorescent multilabel counter and tributamide hydroxide (CYP2CP metabolite), mephenytoin 4′hydroxide (CYP2C19 metabolite), […] (CYP2D6 metabolite), and terfenadine alcohol (CYP3A4 metabolite) were quantified by LC/MS/MS.
(§4) Addition of only DMSO being a solvent dissolving a drug to a reaction system was adopted as a control (100%), remaining activity (%) was calculated at each concentration of a test drug added as the solution and IC50 was calculated by reverse presumption by a logistic model using a concentration and an inhibition rate.

CYP2C9 = CYP2C9 (Homo sapiens (Human), UniProt P11712); assay: CYP inhibition test, CYP2C9; assay type: in vitro ADME; settings: pooled human hepatic microsome; tolbutamide methyl-hydroxylation
Method: as §1, §2, §3, §4

CYP2C19 = CYP2C19 (Homo sapiens (Human), UniProt P33261); assay: CYP inhibition test, CYP2C19; assay type: in vitro ADME; settings: pooled human hepatic microsome; mephenytoin 4′-hydroxylation
Method: as §1, §2, §3, §4

CYP2D6 = CYP2D6 (Homo sapiens (Human), UniProt P10635); assay: CYP inhibition test, CYP2D6; assay type: in vitro ADME; settings: pooled human hepatic microsome; dextromethorphan O-demethylation
Method: as §1, §2, §3, §4

CYP3A4 = CYP3A4 (Homo sapiens (Human), UniProt P08684); assay: CYP inhibition test, CYP3A4; assay type: in vitro ADME; settings: pooled human hepatic microsome; terfenedine hydroxylation
Method: as §1, §2, §3, §4

[1] = Solubility test (1% DMSO, artificial intestinal juice pH 6.8); assay type: physicochemical; settings: artificial intestinal juice pH 6.8 with 1% DMSO, 25 °C, fassgf or other biorelevant, kinetic from dmso stock, artificial intestinal juice pH 6.8, 25 degrees Celsius, read-out: Solubulity
Method: The solubility of a compound was determined under a condition in which 1% DMSO was added. 10 mmol/L compound solution was prepared using DMSO, and then 2 μL of the compound solution was added to 198 μL of artificial intestinal juice in pH 6.8 (to 250 mL of 0.2 mol/L potassium dihydrogen phosphate reagent solution was added 118 mL of 0.2 mol/L NaOH reagent solution and water to provide a final volume of 1000 mL). After standing at 25 degrees Celsius for 18 hours, the mixed solution was filtrated with suction. The filtrate was diluted twice with methanol/water (1/1), and then a concentration in the filtration was measured with HPLC or LC/MS/MS by the absolute calibration method.

human P2X3 receptor = human P2X3 receptor (Homo sapiens (Human), UniProt P56373); assay: Evaluation of human P2X3 receptor inhibitory activity (FLIPR Ca fluorescence, ATP-evoked); assay type: cell-based; settings: C6BU-1 cells stably expressing human P2X3 receptor
Method: Stably expressing cell line (C6BU-1 cell transfected with human P2X3 receptor gene (GenBank accession number Y07683) was used. The cells were seeded in a 384-well PDL-coated microtiter plate at a concentration of 3000 cells/well and cultured in the medium (8.3% fetal bovine serum, 8.3% horse serum, and 1% antibiotic and antifungal in DMEM) for one day at 37° C. under 5% carbon dioxide atmosphere. The medium was replaced with 4 μM Fluo-3-AM solution (20 mM HEPES, 137 mM NaCl, 2.7 mM KCl, 0.9 mM MgCl2, 5.0 mM CaCl2, 5.6 mM D-glucose, 2.5 mM probenecid, 0.5% BSA, and 0.04% Pluronic P-127, pH 7.5) and incubated at 37° C. under 5% dioxide carbon atmosphere for one hour. The plate was washed with washing buffer (20 mM HEPES, 137 mM NaCl, 2.7 mM KCl, 0.9 mM MgCl2, 5.0 mM CaCl2, 5.6 mM D-glucose, 2.5 mM probenecid, pH 7.5), and each well was added with 20 μL of the washing buffer. The plate was placed in High-Throughput Screening System FLIPR 384 (Molecular Device Co.). Measurement of fluorescence intensity by […] was started, and 20 μL of DMSO solutions containing different concentrations of the test compound as prepared by dilution with dilution buffer (20 mM HEPES, 137 mM NaCl, 2.7 mM KCl, 0.9 mM MgCl2, 5.0 mM CaCl2, 5.6 mM D-glucose, 2.5 mM probenecid, 0.1% Pluronic F-127, pH 7.5) were dispensed to each well through the built-in automatic dispenser. Five minutes after, 150 nM ATP solution (25 μL) prepared by dilution with the dilution buffer was dispensed through the built-in automatic dispenser, and the measurement of fluorescence intensity was continued for 4 min. For each well, the specific maximum fluorescence intensity was calculated as the ratio of the maximum fluorescence intensity after addition of the ATP solution to the fluorescence intensity at the starting of the measurement. […] The specific maximum fluorescence intensify and IC50 were calculated using Spotfire (Science & Technology Systems. Inc.)

Rat P2X3 receptor = Rat P2X3 receptor (Rattus norvegicus (Rat), UniProt P49654); assay: Evaluation of rat P2X3 receptor inhibitory activity in the presence of rat serum albumin (RSA); assay type: cell-based; settings: read-out: ratP2X3 + RSA IC50
Method: Rat P2X3 receptor gene (GenBank accession number NM_031075) was expressed in C6BU-1 cell. The C6BU-1 cells were seeded in a 96-well micro titer plate at a concentration of 2500 cells/well and cultured in the medium (7.0% fetal bovine serum, 7.0% horse serum, and 1% antibiotic and antifungal in DMEM) for one day at 37° C. under 5% carbon dioxide atmosphere. The plasmid was transfected into the cells using transfection reagent FuGENE6 (Promega). The transfected cells were cultured in the medium for one day at 37° C. under 5% carbon dioxide atmosphere. The medium was replaced with 4 μM Fluo-4-AM solution (pH 7.5) containing 20 mM HEPES, 137 mM NaCl, 5.27 mM KCl, 0.9 mM MgCl2, 1.26 mM CaCl2, 5.6 mM D-glucose, 2.5 mM probenecid, 10% RSA, and 0.08% Pluronic F-127, and incubated at 37° C. under 5% dioxide carbon atmosphere for one hour. The plate was washed with washing buffer (20 mM HEPES, 137 mM NaCl, 5.27 mM KCl, 0.9 mM MgCl2, 1.26 mM CaCl2, 5.6 mM D-glucose, 2.5 mM probenecid, pH 7.5), and each well was added with 40 μL of this buffer. The plate was placed in High-Throughput Screening System FDSS 3000 (Hamamatsu Photonics K.K.). Measurement of fluorescence intensity by FDSS 3000 was started, and 40 μL of DMSO solutions containing 1% RSA (final concentrations) and different concentrations of the test compound as prepared by dilution with dilution buffer (20 mM HEPES, 137 mM NaCl, 5.27 mM KCl, 0.9 mM MgCl2, 1.26 mM CaCl2, 5.6 mM D-glucose, 2.5 mM probenecid, 0.1% Pluronic F-127, pH 7.5) were dispensed to each well through the built-in automatic dispenser. Five minutes after, 50 nM ATP solution (50 μL) prepared by dilution with the dilution buffer was dispensed through the built-in automatic dispenser, and the measurement of fluorescence intensity was continued for 4 min. For each well, the specific maximum fluorescence intensity was calculated as the ratio of the maximum fluorescence intensity after addition of the ATP solution to the fluorescence intensity at the starting of the measurement. […] FDSS software (Hamamatsu Photonics K.K.) was used for calculation of the specific maximum fluorescence intensity. IC50 was calculated using Microsoft Excel (Microsoft Corporation) and XLfit (idbs Ltd.).

[2] = Pharmacokinetic test (BA, CLtot); assay type: in vivo; settings: rat, plasma, SD rats
Method: • (1) Animals: SD rats were used • (2) Breeding conditions: SD rats were allowed to freely take solid food and sterilized tap water. • (3) Dose and grouping: orally or intravenously administered at a predetermined dose; grouping was as follows (Dose depends on the compound)
Oral administration: 1 mg/kg (n=2)
The total body clearance (CLtot) was calculated by dividing the dose by the AUC of the intravenous administration group.

[3] = intravenous administration 0.5 mg/kg
[4] = intravenous administration 0.5 mg/kg, read-out: AUC (iv)
[5] = oral administration 1 mg/kg, read-out: AUC (po)

Sequence of Rat P2X3 receptor (P49654 whole entry): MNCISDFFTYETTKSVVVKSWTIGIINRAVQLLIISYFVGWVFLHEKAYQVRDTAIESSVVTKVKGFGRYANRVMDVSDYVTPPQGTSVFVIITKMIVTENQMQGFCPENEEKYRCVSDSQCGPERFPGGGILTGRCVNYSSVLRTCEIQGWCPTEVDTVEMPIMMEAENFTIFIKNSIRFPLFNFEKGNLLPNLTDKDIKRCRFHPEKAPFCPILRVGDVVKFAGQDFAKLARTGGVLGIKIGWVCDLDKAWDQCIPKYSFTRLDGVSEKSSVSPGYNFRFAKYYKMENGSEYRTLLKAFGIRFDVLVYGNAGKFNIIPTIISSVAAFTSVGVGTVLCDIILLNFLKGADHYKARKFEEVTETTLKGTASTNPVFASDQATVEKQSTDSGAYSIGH
Sequence of CYP1A2 (P05177 whole entry): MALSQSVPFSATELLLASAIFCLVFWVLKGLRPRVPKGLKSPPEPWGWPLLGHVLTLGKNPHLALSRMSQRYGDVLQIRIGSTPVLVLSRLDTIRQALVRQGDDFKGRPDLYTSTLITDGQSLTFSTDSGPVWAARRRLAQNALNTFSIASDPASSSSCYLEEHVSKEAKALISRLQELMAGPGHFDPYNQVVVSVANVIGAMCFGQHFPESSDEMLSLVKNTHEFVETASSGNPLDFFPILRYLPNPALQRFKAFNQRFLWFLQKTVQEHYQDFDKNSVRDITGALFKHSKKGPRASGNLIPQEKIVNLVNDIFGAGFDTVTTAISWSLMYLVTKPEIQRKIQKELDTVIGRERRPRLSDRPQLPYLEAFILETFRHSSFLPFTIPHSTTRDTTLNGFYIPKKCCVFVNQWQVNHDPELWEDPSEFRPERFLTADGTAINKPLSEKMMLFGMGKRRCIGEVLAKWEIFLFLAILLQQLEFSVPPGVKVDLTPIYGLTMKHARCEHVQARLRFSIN
Sequence of CYP2C9 (P11712 whole entry): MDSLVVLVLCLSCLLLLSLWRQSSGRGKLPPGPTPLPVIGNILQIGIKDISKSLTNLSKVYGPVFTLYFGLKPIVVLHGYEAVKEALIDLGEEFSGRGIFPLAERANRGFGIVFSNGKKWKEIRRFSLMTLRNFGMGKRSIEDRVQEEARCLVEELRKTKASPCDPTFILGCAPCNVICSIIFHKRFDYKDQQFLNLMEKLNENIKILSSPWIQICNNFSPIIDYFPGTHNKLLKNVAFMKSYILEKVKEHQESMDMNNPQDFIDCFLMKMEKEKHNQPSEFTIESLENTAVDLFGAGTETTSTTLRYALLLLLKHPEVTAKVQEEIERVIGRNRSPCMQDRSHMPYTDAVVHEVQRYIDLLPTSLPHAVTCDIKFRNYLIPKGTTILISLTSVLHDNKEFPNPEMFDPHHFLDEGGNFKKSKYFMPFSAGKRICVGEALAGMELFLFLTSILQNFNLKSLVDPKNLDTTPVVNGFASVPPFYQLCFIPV
Sequence of CYP3A4 (P08684 whole entry): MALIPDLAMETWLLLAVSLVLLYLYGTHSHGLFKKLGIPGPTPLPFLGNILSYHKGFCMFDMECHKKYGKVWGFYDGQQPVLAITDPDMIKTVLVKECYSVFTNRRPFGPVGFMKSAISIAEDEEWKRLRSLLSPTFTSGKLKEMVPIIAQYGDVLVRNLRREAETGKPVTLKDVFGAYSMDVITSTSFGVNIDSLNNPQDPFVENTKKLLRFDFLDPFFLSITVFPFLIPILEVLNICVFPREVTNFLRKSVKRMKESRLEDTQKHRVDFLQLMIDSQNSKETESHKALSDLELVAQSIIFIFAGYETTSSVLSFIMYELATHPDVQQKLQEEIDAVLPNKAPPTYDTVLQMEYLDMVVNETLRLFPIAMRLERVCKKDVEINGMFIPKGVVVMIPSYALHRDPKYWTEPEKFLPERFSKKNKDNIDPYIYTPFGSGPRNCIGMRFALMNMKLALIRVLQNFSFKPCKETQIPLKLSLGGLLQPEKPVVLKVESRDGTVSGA
Sequence of CYP2C19 (P33261 whole entry): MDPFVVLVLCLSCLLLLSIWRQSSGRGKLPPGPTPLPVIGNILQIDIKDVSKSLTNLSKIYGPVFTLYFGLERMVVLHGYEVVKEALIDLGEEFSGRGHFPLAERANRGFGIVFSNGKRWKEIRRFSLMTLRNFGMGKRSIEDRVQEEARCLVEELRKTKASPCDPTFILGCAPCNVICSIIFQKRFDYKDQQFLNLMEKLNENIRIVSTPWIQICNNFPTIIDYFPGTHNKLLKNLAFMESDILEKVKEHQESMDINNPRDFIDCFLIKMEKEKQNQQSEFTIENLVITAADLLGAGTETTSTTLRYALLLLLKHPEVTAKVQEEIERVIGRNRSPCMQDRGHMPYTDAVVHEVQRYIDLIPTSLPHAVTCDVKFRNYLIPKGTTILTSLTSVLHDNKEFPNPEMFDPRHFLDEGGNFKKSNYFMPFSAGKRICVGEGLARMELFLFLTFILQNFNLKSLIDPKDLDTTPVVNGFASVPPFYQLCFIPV
Sequence of CYP2D6 (P10635 whole entry): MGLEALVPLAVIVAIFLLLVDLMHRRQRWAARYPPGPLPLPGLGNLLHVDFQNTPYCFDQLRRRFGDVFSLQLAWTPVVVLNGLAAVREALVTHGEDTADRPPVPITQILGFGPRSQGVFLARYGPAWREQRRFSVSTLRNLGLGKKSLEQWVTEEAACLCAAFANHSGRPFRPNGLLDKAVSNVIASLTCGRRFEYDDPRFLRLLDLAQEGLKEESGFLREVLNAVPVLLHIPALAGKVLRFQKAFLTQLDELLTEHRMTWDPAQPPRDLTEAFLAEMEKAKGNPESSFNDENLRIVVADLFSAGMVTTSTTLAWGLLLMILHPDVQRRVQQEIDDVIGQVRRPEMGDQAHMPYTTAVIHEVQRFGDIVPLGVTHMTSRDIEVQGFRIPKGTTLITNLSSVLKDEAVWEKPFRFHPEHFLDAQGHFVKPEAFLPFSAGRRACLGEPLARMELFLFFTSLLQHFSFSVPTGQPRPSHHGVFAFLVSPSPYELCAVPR
Sequence of human P2X3 receptor (P56373 whole entry): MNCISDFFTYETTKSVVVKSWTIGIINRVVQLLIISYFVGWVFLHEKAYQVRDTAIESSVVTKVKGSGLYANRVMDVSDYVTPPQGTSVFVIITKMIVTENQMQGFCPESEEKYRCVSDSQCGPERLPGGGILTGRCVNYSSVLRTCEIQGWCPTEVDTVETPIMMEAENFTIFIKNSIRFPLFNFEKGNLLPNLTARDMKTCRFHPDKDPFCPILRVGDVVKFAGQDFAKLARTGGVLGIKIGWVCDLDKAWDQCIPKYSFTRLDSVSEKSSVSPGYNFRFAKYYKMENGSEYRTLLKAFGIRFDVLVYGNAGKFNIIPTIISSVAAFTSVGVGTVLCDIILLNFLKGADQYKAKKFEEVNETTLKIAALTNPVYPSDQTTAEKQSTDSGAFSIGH

Compound	IC50 (CYP1A2)	IC50 (CYP2C9)	IC50 (CYP2C19)	IC50 (CYP2D6)	IC50 (CYP3A4)	other results
Cc1ccc(Cn2c(=O)n(CC(C)(C)C(=O)O)c(=O)[nH]/c2=N\c2ccc(Oc3ccc(F)cn3)cc2)cc1 [Compound I-041]	> 20 µM	> 20 µM	> 20 µM	> 20 µM	> 20 µM	solubility at 18 h [1]: > 50 µM
COC(=O)[C@@H](C)Cn1c(=O)[nH]/c(=N\c2ccc(Oc3ccc(F)cn3)cc2)n(Cc2ccc(F)cc2F)c1=O [Compound I-025]	–	–	–	–	–	IC50 (human P2X3 receptor): 0.023 µM
C[C@@H](Cn1c(=O)[nH]/c(=N\c2ccc(Oc3cccnn3)c(F)c2)n(Cc2ccc(Cl)cc2)c1=O)C(=O)O [Compound R-037]	–	–	–	–	–	IC50 (Rat P2X3 receptor): 0.008 µM
C[C@@H](Cn1c(=O)[nH]/c(=N\c2ccc(Oc3cccc(Cl)n3)cc2)n(Cc2ccc(Cl)cc2)c1=O)C(=O)O [Compound I-014]	–	–	–	–	–	clearance [2, 3]: 4 mL/min/kg; AUC [2, 4]: 2300 ng·h/mL; AUC [2, 5]: 4890 ng·h/mL
Cc1ccc(Cn2c(=O)n(C[C@H](C)C(=O)O)c(=O)[nH]/c2=N\c2ccc(Oc3cccc(C(F)(F)F)n3)cc2)cc1 [Compound I-039]	–	–	–	–	–	solubility at 18 h [1]: > 50 µM
COc1nccc(Oc2ccc(/N=c3\[nH]c(=O)n([C@@H](C)[C@@H](C)C(=O)O)c(=O)n3Cc3ccc(Cl)cc3)cc2)n1 [Compound R-010]	> 20 µM	> 20 µM	> 20 µM	> 20 µM	> 20 µM	–
C[C@@H](Cn1c(=O)[nH]/c(=N\c2ccc(Oc3cnc(Cl)cn3)cc2)n(Cc2ccc(Cl)cc2)c1=O)C(=O)O [Compound R-014]	> 20 µM	> 20 µM	> 20 µM	> 20 µM	> 20 µM	IC50 (Rat P2X3 receptor): 0.006 µM
O=C(O)C1(Cn2c(=O)[nH]/c(=N\c3ccc(Oc4cccc(F)n4)cc3)n(Cc3ccc(Cl)cc3)c2=O)CC1 [Compound I-017]	–	–	–	–	–	clearance [2, 3]: 2.3 mL/min/kg; AUC [2, 4]: 3790 ng·h/mL; AUC [2, 5]: 6110 ng·h/mL
Cc1ccc(Cn2c(=O)n([C@@H](C)[C@@H](C)C(=O)O)c(=O)[nH]/c2=N\c2ccc(Oc3cccc(F)n3)cc2)cc1 [Compound I-106]	> 20 µM	> 20 µM	> 20 µM	> 20 µM	> 20 µM	–
Cc1ccc(Cn2c(=O)n(C[C@H](C)C(=O)O)c(=O)[nH]/c2=N\c2ccc(Oc3ccc(Cl)cn3)cc2)cc1 [Compound I-100]	–	–	–	–	–	IC50 (Rat P2X3 receptor): 0.009 µM
Cc1ccc(Oc2ccc(/N=c3\[nH]c(=O)n(CC(C)(C)C(=O)O)c(=O)n3Cc3ccc(Cl)cc3)cc2)nc1 [Compound I-058]	–	–	–	–	–	clearance [2, 3]: 5.8 mL/min/kg; AUC [2, 4]: 1510 ng·h/mL; AUC [2, 5]: 2030 ng·h/mL
Cc1ccc(Cn2c(=O)n([C@@H](C)[C@@H](C)C(=O)O)c(=O)[nH]/c2=N\c2ccc(Oc3ccc(C)cn3)cc2)cc1 [Compound I-113]	–	–	–	–	–	IC50 (Rat P2X3 receptor): 0.01 µM
C[C@@H](Cn1c(=O)[nH]/c(=N\c2ccc(Oc3ccccn3)cc2)n(Cc2ccc(Cl)cc2)c1=O)C(=O)O [Compound I-127]	–	–	–	–	–	clearance [2, 3]: 3.8 mL/min/kg; AUC [2, 4]: 2330 ng·h/mL; AUC [2, 5]: 2460 ng·h/mL
Cc1ccc(Cn2c(=O)n(C[C@H](C)C(=O)O)c(=O)[nH]/c2=N\c2ccc(Oc3ccc(C(F)(F)F)cn3)cc2)cc1 [Compound I-038]	–	–	–	–	–	solubility at 18 h [1]: > 50 µM
C[C@@H](Cn1c(=O)[nH]/c(=N\c2ccc(Oc3ccc(OC(F)F)cn3)cc2)n(Cc2ccc(Cl)cc2)c1=O)C(=O)O [Compound I-022]	–	–	–	–	–	IC50 (Rat P2X3 receptor): 0.011 µM

Now from value to compound, other results behind:

IC50 (CYP1A2)	IC50 (CYP2C9)	IC50 (CYP2C19)	IC50 (CYP2D6)	IC50 (CYP3A4)	Compound	other results
> 20 µM	> 20 µM	> 20 µM	> 20 µM	> 20 µM	COc1cc(Oc2ccc(/N=c3\[nH]c(=O)n(C[C@H](C)C(=O)O)c(=O)n3Cc3ccc(Cl)cc3)cc2)cc(F)n1 [Compound R-058]	–
> 20 µM	> 20 µM	> 20 µM	> 20 µM	> 20 µM	CC(C)(Cn1c(=O)[nH]/c(=N\c2ccc(Oc3cnc(Cl)cn3)cc2)n(Cc2ccc(Cl)cc2)c1=O)C(=O)O [Compound R-027]	–
> 20 µM	> 20 µM	> 20 µM	> 20 µM	> 20 µM	COc1ccnc(Oc2ccc(/N=c3\[nH]c(=O)n(C[C@H](C)C(=O)O)c(=O)n3Cc3ccc(Cl)cc3)cc2)c1 [Compound I-069]	–
